According to ChEMBL document CHEMBL6092186, “Semisynthetic Ecdysteroid Cinnamate Esters and tert-Butyl Oxime Ether Derivatives with Trypanocidal Activity” (J Nat Prod, 2024):
Values belong to the compound of their own block, whether it stands above or below them. Activity calls are given as the source filed them. No cut-off for these calls is given here.

What was measured:
CHO = assay: Cytotoxicity against CHO cells at 5 uM incubated for 72 hrs by MTT assay; assay type: toxicity, cell-based, Cricetulus griseus; conditions: chinese hamster
Trypanosoma cruzi [1] = assay: Anti-trypanosomal activity against Trypanosoma cruzi epimastigotes assessed as inhibition of parasitic proliferation at 5 uM incubated for 72 hrs by XTT assay relative to control; assay type: functional
Trypanosoma = assay: Anti-trypanosomal activity against Trypanosoma; assay type: functional, organism-based
Trypanosoma cruzi [2] = assay: Trypanocidal activity against Trypanosoma cruzi epimastigotes incubated for 24 hrs by Neubauer chamber method; assay type: functional, organism-based

SMILES: CC(C)(O)CC[C@H]1OC(C)(C)O[C@]1(C)[C@H]1CC=C2C3=C/C(=N/OC(C)(C)C)[C@@H]4C[C@H]5OC(C)(C)O[C@H]5C[C@]4(C)[C@H]3CC[C@@]21C
Activity (CHO): Non-toxic

SMILES: CC(C)(O)CC[C@@H](OC(=O)/C=C/c1ccccc1)[C@](C)(O)[C@H]1CC=C2C3=C/C(=N\OC(C)(C)C)[C@@H]4C[C@@H](OC(=O)/C=C/c5ccccc5)[C@@H](OC(=O)/C=C/c5ccccc5)C[C@]4(C)[C@H]3CC[C@@]21C
inhibition at 5 µM (Trypanosoma cruzi [1]): ≥ 30%

IC50 (Trypanosoma): > 600 µM
SMILES: COc1ccc(/C=C/C(=O)O)c(OC)c1

IC50 (Trypanosoma): > 600 µM
SMILES: COc1ccc(/C=C/C(=O)O)cc1 [4-METHOXYCINNAMIC ACID]

SMILES: CC(C)(O)CC[C@@H](OC(=O)/C=C/c1ccccc1)[C@](C)(O)[C@H]1CC[C@@]2(O)C3=CC(=O)[C@@H]4C[C@@H](OC(=O)/C=C/c5ccccc5)[C@@H](O)C[C@]4(C)[C@H]3CC[C@]12C
Activity (CHO): Non-toxic

IC50 (Trypanosoma): > 600 µM
SMILES: COc1cc(/C=C/C(=O)O)cc(OC)c1OC [SINAPIC ACID METHYL ETHER]

SMILES: CC(C)(O)CC[C@@H](OC(=O)/C=C/c1ccccc1)[C@](C)(O)[C@H]1CC=C2C3=C/C(=N\OC(C)(C)C)[C@@H]4C[C@@H](O)[C@@H](OC(=O)/C=C/c5ccccc5)C[C@]4(C)[C@H]3CC[C@@]21C
inhibition at 5 µM (Trypanosoma cruzi [1]): ≥ 30%

SMILES: CC(C)(O)CC[C@@H](OC(=O)/C=C/c1ccccc1)[C@](C)(O)[C@H]1CC[C@@]2(O)C3=CC(=O)[C@@H]4C[C@@H](O)[C@@H](OC(=O)/C=C/c5ccccc5)C[C@]4(C)[C@H]3CC[C@]12C
Activity (CHO): Non-toxic

SMILES: CC(C)(O)CC[C@@H](O)[C@](C)(O)[C@H]1CC=C2C3=C/C(=N/OC(C)(C)C)[C@@H]4C[C@@H](O)[C@@H](OC(=O)/C=C/c5ccccc5)C[C@]4(C)[C@H]3CC[C@@]21C
inhibition at 5 µM (Trypanosoma cruzi [1]): ≥ 30%

SMILES: CC(C)(O)CC[C@@H](O)[C@](C)(O)[C@H]1CC=C2C3=C/C(=N/OC(C)(C)C)[C@@H]4C[C@@H](O)[C@@H](O)C[C@]4(C)[C@H]3CC[C@@]21C
inhibition (Trypanosoma cruzi [1]): inactive

SMILES: CC(C)(O)CC[C@@H](O)[C@](C)(O)[C@H]1CC=C2C3=C/C(=N\OC(C)(C)C)[C@@H]4C[C@@H](O)[C@@H](OC(=O)/C=C/c5ccccc5)C[C@]4(C)[C@H]3CC[C@@]21C
inhibition at 5 µM (Trypanosoma cruzi [1]): ≥ 30%

SMILES: CC(C)(O)CC[C@H]1OC(C)(C)O[C@]1(C)[C@H]1CC[C@@]2(O)C3=C/C(=N\OC(C)(C)C)[C@@H]4C[C@H]5OC(C)(C)O[C@H]5C[C@]4(C)[C@H]3CC[C@]12C
Activity (CHO): Non-toxic

SMILES: CCCCCOC(=O)/C=C/c1ccc(O)cc1
IC50 (Trypanosoma cruzi [2]): ~5 µM

SMILES: CC(C)(O)CC[C@@H](O)[C@](C)(O)[C@H]1CC=C2C3=C/C(=N\OC(C)(C)C)[C@@H]4C[C@@H](O)[C@@H](O)C[C@]4(C)[C@H]3CC[C@@]21C
inhibition (Trypanosoma cruzi [1]): inactive
